Test results taken from patent publication US7030114B1, “Compounds which inhibit leukocyte adhesion mediated by VLA-4” (Elan Pharmaceuticals, Inc., priority 1997, dated 2006).

Test system: Experimental Autoimmune (or Allergic) Encephalomyelitis (“EAE”)
Assay: In vivo evaluation: Experimental Autoimmune (or Allergic) Encephalomyelitis (EAE) model, motor impairment
Design: species or system rats or guinea pigs
Settings: treatment from Day 8, bid for five days, SC, PO or IP

Cc1ccc(S(=O)(=O)N2CCC[C@@]2(C)C(=O)N[C@@H](Cc2ccc(OC(=O)N3CCN(C)CC3)cc2)C(=O)OC(C)(C)C)cc1 [Example 47, N-(toluene-4-sulfonyl)-α-methylprolyl-L-4-(4-methylpiperazin-1-carbonyloxy)phenylalanine tert-butyl ester]
activity in EAE model (delayed the onset of symptoms, e.g., clinical scores no greater than 2 or slowed body weight loss as compared to the control): active
